From patent publication US20220073475A1, “5-MEMBERED HETEROARYL COMPOUNDS CONTAINING A HYDROXAMATE MOIETY AND THEIR USE” (UNIVERSITE DE LILLE, priority 2019, published 2022)

Assays:
TLM1 cells [1] = test: X-ray radiation in combination with compound, propidium iodide dead cells, ratio of corrected AUC; format: cell-based, canine; conditions: for Potency of X-ray radiations in combination with compound (in words): TLM1
Protocol: (§1) Canine melanoma TLM-1 cells are maintained in DMEM medium supplemented with GlutaMAX™, 10% fetal bovine serum, 1× Hepes and 1% penicillin-streptomycin.
TLM-1 cells were seeded with the BioTek MicroFlo™ dispenser in μClear® black 384-well plates (Greiner) at the density of 20,000 cells/mL in 50 μL. Compounds for pre-treatment were added 2 h after the seeding, using an Echo 550 (Labcyte). The next day, cells were washed five times with 40 μL media without phenol red with a plate washer (Hydrospeed, Tecan). Cells were irradiated with 4, 6, 8, 12, 16, 20 and 24 Gray (Gy). […] This step was repeated every 72 h after radiation. Plates were incubated at 37° C. and 5% CO2. […] 4 images per well were collected. Images were analyzed with Columbus software (Perkin Elmer). In this system we used predefined building blocks to measure different parameters on nuclei detected. We applied a threshold based on propidium iodide intensity in nuclei of controls to select and count dead cells. By dividing the number of dead cells by the number of nuclei detected we obtained the percentage of dead cells. AUC were determined in one experiment with triplicate incubates on percentage of cells labelled with propidium iodide and were corrected by the percentage of cells labelled with propidium iodide at 0 Gy. Ratio of AUC corrected was determined as followed: Activity=(Area of the dose-concentration curve of cytotoxic agent combined with one concentration of compound corrected by the effect of the compound alone at 0Gy)/(Area of the dose-concentration curve of radiation alone corrected by the effect of the vehicle at 0Gy).

TLM1 cells [2] = test: UV-C radiation in combination with compound, ratio of % propidium iodide labelled cells; format: cell-based, canine; conditions: for Potency of UV-C radiations in combination with compound (in words): TLM1
Protocol: as §1
Plates were incubated at 37° C. and 5% CO2. […] 4 images per well were collected. Images were analyzed with Columbus software (Perkin Elmer). In this system we used predefined building blocks to measure different parameters on nuclei detected. We applied a threshold based on propidium iodide intensity in nuclei of controls to select and count dead cells. By dividing the number of dead cells by the number of nuclei detected we obtained the percentage of dead cells.

RPMI 8226 cells = test: Epoxomicin (EPX) in combination with compound 3, Annexin V/PI flow cytometry; format: cell-based, human; conditions: RPMI 8226 (FIG. 1A), compound at 7.5 μM, 15 μM and 30 μM
Protocol: (§2) RPMI 8226 and MOPC315.BM cells were cultured in RPMI 1640 medium supplemented with L-glutamine, non-essential amino acids, 2-mercaptoethanol and 10% fetal calf serum.
(§3) Cells were seeded in 24-well culture plates at 150,000 cells/well/mL. […] Cells were treated with protease inhibitors for 24 and 48 hours before analysis for apoptosis and cell death by flow cytometry. The cells were centrifuged at 300×g for 5 minutes and washed with cold FACS buffer (PBS 1× with 2 mM EDTA and 0.5% BSA. Then the cells were resuspended in Annexin V binding buffer (BioLegend) at a concentration of 10^6 cells/mL, and 100 μL of each sample was transferred to a 5 mL FACS tube. 5 μL of Annexin V-FITC Ab (BioLegend) and 5 μL of propidium iodide (BioLegend) were added to each sample and incubated 15 min at RT. Finally, 400 μL of Annexin V binding buffer was added to each tube and the cells were analyzed using BD FACSCanto or BD Fortessa machines within an hour. Annexin+ but PI− cells were identified as apoptotic and Annexin+ PI+ as dead cells.

MOPC315.BM cells = test: as above; format: cell-based, murine; conditions: MOPC315.BM (FIG. 1B), compound at 7.5 μM, 15 μM and 30 μM
Protocol: as §2, §3

OPM2 cells = test: CFZ potency increase, ratio of CC50 of CFZ alone / with compound; format: cell-based, human
How it was run: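 OPM2 cells (12,000/well, 0.2% DMSO) treated with compound plus carfilzomib, with NucView 488 caspase-3/7 substrate (1 μM) and Hoechst 33342, 37 °C; confocal imaging over time gives % apoptotic cells. CFZ CC50 from 4-parameter fits alone and with compound; activity = CC50 alone / CC50 with compound.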

HeLa cells = test: as above; format: cell-based, human; conditions: compound at 7.5 μM
Text: Human HeLa cells (uterine cervical carcinoma) are maintained in DMEM medium supplemented with GlutaMAX™, 10% fetal bovine serum and 1% penicillin-streptomycin.
(§4) We developed a cell-based, high content assay allowing the rapid detection and quantification of apoptotic cells. Caspase-3/7 activity was detected in real-time using the NucView™ 488 Caspase-3 substrate (Biotium), where the caspase-3/7 substrate peptide sequence DEVD is attached to a nucleic acid dye. The NucView™ 488 reagent crosses the plasma membrane to enter the cytoplasm, where the dye is unable to bind to DNA and remains non-fluorescent. Once the substrate has been cleaved by activated caspase-3/7 in apoptotic cells, the high-affinity DNA dye is released and migrates to the cell nucleus to stain the nucleus with a bright green fluorescence. All cell nuclei were also labeled with Hoechst 33342 (Ozyme).
(§5) For HeLa and MCF7 cells, briefly, cells were seeded in 384-microtiter well plate (1500 HeLa cells or 5000 MCF7 cells in 40 μL full medium per well) and let to attach overnight. Then the compound of the invention and the RE stressor were transferred to the cell culture plate using an Echo555 liquid handler (Labcyte) and 30 μL medium containing NucView™ and Hoechst 33342 were added. Final NucView™ 488 and Hoechst 33342 concentrations were 1 μM and 20 ng/mL, respectively. DMSO content was maintained at 0.2%. The microplates were incubated at 37° C. and 5% CO2 in an automated LiCONiC STR240 UB cell incubator, and images were acquired at various times at 405 nm and 488 nm with the high-resolution automated confocal microscope INCell 6000 (GE). Four fields per well were read with the 20× objective in a confocal mode. The BioCel workstation was managed by VWorks automation control software (Agilent).
(§6) For all cells, Columbus software (Perkin) was used for image quantification and analysis. First, Hoechst 33342 staining was used for an automated detection of nuclei, in which the mean fluorescence intensity for NucView™ 488 was quantified. Inspection of control cells at initial time was used to set a threshold level of NucView™ 488 fluorescence to separate non apoptotic cells from apoptotic cells. Finally, for each well, the result was expressed as percentage of apoptotic cells in the total cell population. CC50 values were calculated from concentration-response curves by a nonlinear regression analysis at four parameters using Excel Fit or GraphPad Prim softwares.
(§7) Activity=(% of apoptotic cells with cytotoxic agent in combination with compound of the invention)/(% of apoptotic cells with cytotoxic agent alone). • Ratio of CC50: The CC50 of the cytotoxic agent was calculated in absence and in presence of a compound of the invention.
(§8) Activity=(CC50 of agent alone)/(CC50 of agent with compound). • Ratio of AUC. Activity=(Area of the dose-concentration curve of cytotoxic agent combined with one concentration of compound)/(Area of the dose-concentration curve of cytotoxic agent alone). (Lehar J. et al, 2008 (molecular systems biology 4:215)).

MCF7 cells = test: as above; format: cell-based, human; conditions: MCF7, compound at 15 μM
Protocol: Human epithelial MCF7 cells (mammary gland adenocarcinoma) are maintained in EMEM medium supplemented with GlutaMAX™, 10% fetal bovine serum, 0.01 mg insulin and 1% penicillin-streptomycin.
as §4, §5, §6, §7, §8

| Structure (SMILES) | Potency of X-ray radiations in combination with compound (in words) (TLM1 cells [1]) | Potency of UV-C radiations in combination with compound (in words) (TLM1 cells [2]) | Cytotoxicity of epoxomicin in combination with compound (RPMI 8226 cells) | Cytotoxicity of epoxomicin in combination with compound (MOPC315.BM cells) | Activity: ratio (CC50 of CFZ alone)/(CC50 of CFZ in combination with compound of the invention) (OPM2 cells; OPM2, compound at 7.5 μM (Table 5)) | Activity: ratio (CC50 of CFZ alone)/(CC50 of CFZ in combination with compound of the invention) (OPM2 cells; OPM2, compound at 7.5 μM (Table 6)) | Activity: ratio (CC50 of CFZ alone)/(CC50 of CFZ in combination with compound of the invention) (HeLa cells) | Activity: ratio (CC50 of CFZ alone)/(CC50 of CFZ in combination with compound of the invention) (MCF7 cells) | Activity: ratio of corrected AUC of X-ray radiation in combination with compound / corrected AUC of X-ray radiation alone (TLM1 cells [1]; TLM1, compound at 30 μM) | Activity: ratio of percentage of cells labelling with propidium iodide, compound vs vehicle (TLM1 cells [2]; TLM1, 15 μM compound 24 h before and just after UV-C, 48 h after UV-C at 400 J/m^2, mean of three experiments) |
| --- | --- | --- | --- | --- | --- | --- | --- | --- | --- | --- |
| O=C(C[C@@H](Cc1ccc2ccccc2c1)n1cc(CNC(=O)c2ccc(F)cc2)nn1)NO [Compound 3, 4-Fluoro-N-[1-(R-2-hydroxycarbamoyl-1-naphthalen-2-ylmethyl-ethyl)-1H-[1,2,3]-triazol-4-ylmethyl]-benzamide] | increase the potency | increase the potency | increased | increased |  |  |  |  |  |  |
| Cc1cc(C(=O)NCc2cn([C@@H](CC(=O)NO)Cc3ccc4ccccc4c3)nn2)ccc1F [Compound 80, 4-fluoro-N-[[1-[(1R)-3-(hydroxyamino)-1-(2-naphthylmethyl)-3-oxo-propyl]triazol-4-yl]methyl]-3-methyl-benzamide] | increase the potency | increase the potency |  |  | 2.2 | 2.2 | 3.6 | 2.4 | 2.7 | 2.3 |
